What follows are compounds tested against T1, Bromodomain-containing protein 2 (Homo sapiens, UniProt P25440) (assay: Inhibition of HTRF binding to N-terminal His-tagged BRD2(2) (unknown origin) at 50 uM using biotinylated tetra-acetylated histone H4 peptide and Cryptate-labeled streptavidin incubated for 2 hrs by TR-FRET assay).
Target sequence in this assay (P25440 whole entry, looked up): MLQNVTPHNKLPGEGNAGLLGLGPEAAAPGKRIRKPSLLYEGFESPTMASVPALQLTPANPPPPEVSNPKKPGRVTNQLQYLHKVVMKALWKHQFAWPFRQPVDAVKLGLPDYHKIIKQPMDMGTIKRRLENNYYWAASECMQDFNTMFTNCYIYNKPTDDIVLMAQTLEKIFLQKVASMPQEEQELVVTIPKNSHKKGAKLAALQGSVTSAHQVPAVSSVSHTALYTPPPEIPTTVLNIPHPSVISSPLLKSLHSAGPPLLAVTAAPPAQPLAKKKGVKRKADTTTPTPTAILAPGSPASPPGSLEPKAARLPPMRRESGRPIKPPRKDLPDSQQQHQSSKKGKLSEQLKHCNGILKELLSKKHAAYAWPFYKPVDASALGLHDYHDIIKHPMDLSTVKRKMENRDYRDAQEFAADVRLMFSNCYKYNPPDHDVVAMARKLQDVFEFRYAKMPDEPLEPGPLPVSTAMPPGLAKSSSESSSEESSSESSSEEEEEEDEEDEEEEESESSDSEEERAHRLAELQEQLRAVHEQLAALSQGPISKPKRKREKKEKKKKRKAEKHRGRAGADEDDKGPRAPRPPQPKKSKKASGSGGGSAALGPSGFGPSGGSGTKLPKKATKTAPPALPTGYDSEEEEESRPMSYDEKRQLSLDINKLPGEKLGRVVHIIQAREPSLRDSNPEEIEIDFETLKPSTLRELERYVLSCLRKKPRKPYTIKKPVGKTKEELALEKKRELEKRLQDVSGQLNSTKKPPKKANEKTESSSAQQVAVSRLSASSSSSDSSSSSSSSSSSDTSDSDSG

`COc1ccc(/C=C(/C(=O)N2CC(=O)Nc3ccccc32)c2ccccc2)cc1` and `O=C1CN(C(=O)Cc2cccc3ccccc23)c2ccccc2N1` cannot be ordered by inhibition: > 50% for the first, > 50% for the second.

Compared with `O=C1CN(C(=O)Cc2cccs2)c2ccccc2N1`, `O=C1CN(C(=O)Cc2ccc(Cl)cc2)c2ccccc2N1` is higher in inhibition: 0% for the first, 25% for the second.

First: COc1ccc(CC(=O)N2CC(=O)Nc3ccccc32)cc1OC
Second: Cc1ccc(CC(=O)N2CC(=O)Nc3ccccc32)cc1
The inhibition of the first is higher: 25% for the first, 0% for the second.

`CCc1ccc(CC(=O)N2CC(=O)Nc3ccccc32)cc1` and `CSc1ccc(CC(=O)N2CC(=O)Nc3ccccc32)cc1` are the same in inhibition: 0% for the first, 0% for the second.

Going from `O=C1CN(C(=O)c2cccc(F)c2)c2ccccc2N1` to `O=C1CN(C(=O)c2cccc(C(F)(F)F)c2)c2ccccc2N1`, the inhibition rises from 25% to > 50%.

Compared with `CSc1ccccc1C(=O)N1CC(=O)Nc2ccccc21`, `CC(C)Sc1ccccc1C(=O)N1CC(=O)Nc2ccccc21` is lower in inhibition: > 50% for the first, 25% for the second.

Compared with `CS(=O)(=O)N(CC(=O)N1CC(=O)Nc2ccccc21)c1ccccc1F`, `O=C1CN(C(=O)CCc2ccccc2Cl)c2ccccc2N1` is higher in inhibition: 0% for the first, 25% for the second.

`Cc1ccc(-c2cc(C(=O)N3CC(=O)Nc4ccccc43)[nH]n2)cc1` and `O=C1CN(C(=O)c2cc(-c3cccc(Cl)c3)[nH]n2)c2ccccc2N1` are the same in inhibition: 0% for the first, 0% for the second.

Compared with `CSc1ccc(Cl)c(C(=O)N2CC(=O)Nc3ccccc32)c1`, `O=C1CN(C(=O)c2sc3ccccc3c2Cl)c2ccccc2N1` is higher in inhibition: 0% for the first, 25% for the second.

`Cc1cccc(OCCC(=O)N2CC(=O)Nc3ccccc32)c1` and `COc1cccc(OCC(=O)N2CC(=O)Nc3ccccc32)c1` are the same in inhibition: 25% for the first, 25% for the second.

`CCn1ccc(C(=O)N2CC(=O)Nc3ccccc32)n1` and `O=C1CN(C(=O)C(c2ccccc2)c2ccccc2)c2ccccc2N1` cannot be ordered by inhibition: > 50% for the first, > 50% for the second.

What follows are compounds tested against T2, Bromodomain-containing protein 4 (Homo sapiens, UniProt O60885) (assay: Inhibition of HTRF binding to N-terminal His-tagged BRD4(1) (unknown origin) at 50 uM using biotinylated tetra-acetylated histone H4 peptide and Cryptate-labeled streptavidin incubated for 2 hrs by TR-FRET assay).

`COc1ccc(/C=C(/C(=O)N2CC(=O)Nc3ccccc32)c2ccccc2)cc1` and `O=C1CN(C(=O)Cc2cccc3ccccc23)c2ccccc2N1` cannot be ordered by inhibition: > 25% for the first, > 25% for the second.

`O=C1CN(C(=O)Cc2cccs2)c2ccccc2N1` and `O=C1CN(C(=O)Cc2ccc(Cl)cc2)c2ccccc2N1` are the same in inhibition: 0% for the first, 0% for the second.

`COc1ccc(CC(=O)N2CC(=O)Nc3ccccc32)cc1OC` and `Cc1ccc(CC(=O)N2CC(=O)Nc3ccccc32)cc1` are the same in inhibition: 0% for the first, 0% for the second.

`CCc1ccc(CC(=O)N2CC(=O)Nc3ccccc32)cc1` and `CSc1ccc(CC(=O)N2CC(=O)Nc3ccccc32)cc1` are the same in inhibition: 0% for the first, 0% for the second.

First: O=C1CN(C(=O)c2cccc(F)c2)c2ccccc2N1
Second: O=C1CN(C(=O)c2cccc(C(F)(F)F)c2)c2ccccc2N1
The inhibition of the first is lower: 0% for the first, > 25% for the second.

Going from `CSc1ccccc1C(=O)N1CC(=O)Nc2ccccc21` to `CC(C)Sc1ccccc1C(=O)N1CC(=O)Nc2ccccc21`, the inhibition falls from > 25% to 0%.

`CS(=O)(=O)N(CC(=O)N1CC(=O)Nc2ccccc21)c1ccccc1F` and `O=C1CN(C(=O)CCc2ccccc2Cl)c2ccccc2N1` are the same in inhibition: 0% for the first, 0% for the second.

`Cc1ccc(-c2cc(C(=O)N3CC(=O)Nc4ccccc43)[nH]n2)cc1` and `O=C1CN(C(=O)c2cc(-c3cccc(Cl)c3)[nH]n2)c2ccccc2N1` are the same in inhibition: 0% for the first, 0% for the second.

`CSc1ccc(Cl)c(C(=O)N2CC(=O)Nc3ccccc32)c1` and `O=C1CN(C(=O)c2sc3ccccc3c2Cl)c2ccccc2N1` are the same in inhibition: 0% for the first, 0% for the second.

`Cc1cccc(OCCC(=O)N2CC(=O)Nc3ccccc32)c1` and `COc1cccc(OCC(=O)N2CC(=O)Nc3ccccc32)c1` are the same in inhibition: 0% for the first, 0% for the second.

`CCn1ccc(C(=O)N2CC(=O)Nc3ccccc32)n1` and `O=C1CN(C(=O)C(c2ccccc2)c2ccccc2)c2ccccc2N1` cannot be ordered by inhibition: > 25% for the first, > 25% for the second.

The compounds below were run against T2, Bromodomain-containing protein 4 (assay: Inhibition of HTRF binding to N-terminal His-tagged BRD4(1) (unknown origin) using biotinylated tetra-acetylated histone H4 peptide and Cryptate-labeled streptavidin incubated for 2 hrs by TR-FRET assay).

First: COc1ccc(/C=C(/C(=O)N2CC(=O)Nc3ccccc32)c2ccc(OC)cc2)cc1
Second: COc1ccc(/C=C(/C(=O)N2CC(=O)Nc3cc(OC)ccc32)c2ccccc2)cc1
The IC50 of the first is 2.1-fold lower: 16 µM for the first, 34 µM for the second. The first is the more potent here.

Compared with `COc1ccc(/C=C(/C(=O)N2CC(=O)Nc3ccccc32)c2ccc(NC(C)=O)cc2)cc1`, `COc1ccc(/C=C(/C(=O)N2CC(=O)Nc3ccccc32)c2ccccc2)cc1` is 2-fold higher in IC50: 13 µM for the first, 26 µM for the second. The first is the more potent here.

First: COc1cc(NCc2ccccc2)cc(C(=O)N2CC(=O)Nc3ccccc32)c1
Second: COc1cc(C(=O)N2CC(=O)Nc3ccccc32)cc(-c2ccccc2)c1
The IC50 of the first is higher: > 50 µM for the first, 13 µM for the second.

`O=C1CN(C(=O)c2cncc(-c3ccc(F)cc3)c2)c2ccccc2N1` and `O=C1CN(C(=O)c2cncc(-c3ccc(Cl)cc3)c2)c2ccccc2N1` are within 1.5-fold of each other in IC50: 47 µM for the first, 49 µM for the second.

Going from `COC(=O)c1ccc(/C=C(/C(=O)N2CC(=O)Nc3ccccc32)c2ccccc2)cc1` to `NC(=O)c1ccc(/C=C(/C(=O)N2CC(=O)Nc3ccccc32)c2ccccc2)cc1`, the IC50 rises from 25 µM to 46 µM (1.8-fold).

Going from `O=C1CN(C(=O)c2cc(O)cc(-c3ccccc3)c2)c2ccccc2N1` to `O=C1CN(C(=O)c2cncc(-c3ccccc3)c2)c2ccccc2N1`, the IC50 rises from 9 µM to 26 µM (2.9-fold).

First: COc1ccc(/C=C(/C(=O)Nc2c(C)noc2C)c2ccc(OC)cc2)cc1
Second: COc1ccc(/C=C(/C(=O)N2CC(=O)Nc3cc(OC)ccc32)c2ccc(OC)cc2)cc1
The IC50 of the first is 3.4-fold higher: 44 µM for the first, 13 µM for the second.

`COc1cccc(-c2cncc(C(=O)N3CC(=O)Nc4ccccc43)c2)c1` and `O=C1CN(C(=O)c2cncc(-c3cccc(O)c3)c2)c2ccccc2N1` are within 1.5-fold of each other in IC50: 25 µM for the first, 29 µM for the second.

`COc1ccc(/C=C(/C(=O)N2CC(=O)Nc3ccccc32)c2ccc(C)c(C)c2)cc1` and `COc1ccc(/C=C(/C(=O)N2CC(=O)Nc3ccccc32)c2ccc(OC)c(OC)c2)cc1` are within 1.5-fold of each other in IC50: 14 µM for the first, 18 µM for the second.

Compared with `COc1ccc(/C=C(/C(=O)N2CC(=O)Nc3ccccc32)c2ccc(OC)cc2OC)cc1`, `COc1ccc(/C=C(/C(=O)N2CC(=O)Nc3ccccc32)c2cccs2)cc1` is lower in IC50: > 50 µM for the first, 13 µM for the second. The second is the more potent here.

Going from `COc1ccc(/C(=C\c2ccncc2)C(=O)N2CC(=O)Nc3ccccc32)cc1` to `CC(=O)Nc1cccc(/C=C(/C(=O)N2CC(=O)Nc3ccccc32)c2ccccc2)c1`, the IC50 rises from 25 µM to 40 µM (1.6-fold).

With `N#Cc1cccc(-c2cncc(C(=O)N3CC(=O)Nc4ccccc43)c2)c1` the IC50 was 44 µM.

These compounds were tested against T1, Bromodomain-containing protein 2 (assay: Inhibition of HTRF binding to N-terminal His-tagged BRD2(2) (unknown origin) using biotinylated tetra-acetylated histone H4 peptide and Cryptate-labeled streptavidin incubated for 2 hrs by TR-FRET assay).
Target sequence in this assay (P25440 whole entry): as the sequence (P25440 whole entry, looked up) above

Going from `COc1ccc(/C=C(/C(=O)N2CC(=O)Nc3ccccc32)c2ccc(OC)cc2)cc1` to `COc1ccc(/C=C(/C(=O)N2CC(=O)Nc3cc(OC)ccc32)c2ccccc2)cc1`, the IC50 rises from 13 µM to > 50 µM.

`COc1ccc(/C=C(/C(=O)N2CC(=O)Nc3ccccc32)c2ccc(NC(C)=O)cc2)cc1` and `COc1ccc(/C=C(/C(=O)N2CC(=O)Nc3ccccc32)c2ccccc2)cc1` are within 1.5-fold of each other in IC50: 24 µM for the first, 22 µM for the second.

Going from `COC(=O)c1ccc(/C=C(/C(=O)N2CC(=O)Nc3ccccc32)c2ccccc2)cc1` to `NC(=O)c1ccc(/C=C(/C(=O)N2CC(=O)Nc3ccccc32)c2ccccc2)cc1`, the IC50 rises from 25 µM to 49 µM (2-fold). The first is the more potent here.

`COc1ccc(/C=C(/C(=O)Nc2c(C)noc2C)c2ccc(OC)cc2)cc1` and `COc1ccc(/C=C(/C(=O)N2CC(=O)Nc3cc(OC)ccc32)c2ccc(OC)cc2)cc1` are within 1.5-fold of each other in IC50: 12 µM for the first, 13 µM for the second.

Going from `COc1ccc(/C=C(/C(=O)N2CC(=O)Nc3ccccc32)c2ccc(C)c(C)c2)cc1` to `COc1ccc(/C=C(/C(=O)N2CC(=O)Nc3ccccc32)c2ccc(OC)c(OC)c2)cc1`, the IC50 falls from > 50 µM to 26 µM.

First: O=C1CN(C(=O)c2cncc(-c3ccccc3)c2)c2ccccc2N1
Second: N#Cc1cccc(-c2cncc(C(=O)N3CC(=O)Nc4ccccc43)c2)c1
The IC50 of the first is 1.7-fold higher: 20 µM for the first, 12 µM for the second.

First: COc1ccc(/C=C(/C(=O)N2CC(=O)Nc3ccccc32)c2ccc(OC)cc2OC)cc1
Second: COc1ccc(/C=C(/C(=O)N2CC(=O)Nc3ccccc32)c2cccs2)cc1
The IC50 of the first is higher: > 50 µM for the first, 23 µM for the second.

First: COc1ccc(/C(=C\c2ccncc2)C(=O)N2CC(=O)Nc3ccccc32)cc1
Second: CC(=O)Nc1cccc(/C=C(/C(=O)N2CC(=O)Nc3ccccc32)c2ccccc2)c1
The IC50 of the first is 2-fold lower: 5 µM for the first, 10 µM for the second.

Source: ChEMBL document CHEMBL3588835, “Discovery of a new chemical series of BRD4(1) inhibitors using protein-ligand docking and structure-guided design” (Bioorg Med Chem Lett, 2015)
